# Source: patent US6369059B1, “Tetracyclic derivatives, process of preparation and use” (ICOS Corporation, priority 1994, dated 2002)
# What was measured:
# [1] = tested on: Rat aortic smooth muscle cells (RSMC); assay: cGMP level measurements in ANF-stimulated cells; format: cell-based; conditions: 30 minutes at 37° C. with compound, then ANF (100 nM) for 10 minutes, c-GMP by scintillation proximity immunoassay
# Experimental: Rat aortic smooth muscle cells (RSMC) prepared according to Chamley et al. in Cell Tissue Res. 177 503-522 (1977) were used between the 10th and 25th passage at confluence in 24-well culture dishes. Culture media was aspirated and replaced with PBS (0.5 ml) containing the compound tested at the appropriate concentration. After 30 minutes at 37° C., particulates guanylate cyclase was stimulated by addition of ANF (100 nM) for 10 minutes. At the end of incubation, the medium was withdrawn and two extractions were performed by addition of 65% ethanol (0.25 ml). The two ethanolic extracts were pooled and evaporated until dryness, using a Speed-vac system. c-GMP was measured after acetylation by scintillation proximity immunoassay ([…]).
# human recombinant PDE V = target: T1, human recombinant PDE V (Homo sapiens, UniProt O76074); assay: Inhibitory effect on cGMP-PDE (one-step assay adapted from Wells et al.); format: biochemical; conditions: 0.15 μM 8-[H3]-cGMP, 30 minutes incubation, 2% DMSO
# T1 construct: purchased ICOS, Seattle USA
# Experimental: The enzyme used was a human recombinant PDE V (ICOS, Seattle USA).
# Compounds of the invention were dissolved in DMSO finally present at 2% in the assay.
# [2] = tested on: conscious spontaneously hypertensive rats (SHR); assay: Antihypertensive activity in rats; format: in vivo, rat; conditions: orally 5 mg/kg in 5% DMF and 95% olive oil, carotid artery catheter, recorded for 5 hours
# Experimental: The hypotensive effects of compounds according to the invention as identified in table 2 were studied in conscious spontaneously hypertensive rats (SHR). The compounds were administered orally at a dose of 5 mg/kg in a mixture of 5% DMF and 95% olive oil. Blood pressure was measured from a catheter inserted in the carotid artery and recorded for 5 hours after administration. The results are expressed as Area Under the Curve (AUC from 0 to 5 hours, mmHg.hour) of the fall blood pressure over time.
SMILES,melting point [°C],EC50 [1] [nM],IC50 (human recombinant PDE V) [nM],"AUC PO (fall in blood pressure over time, AUC from 0 to 5 hours) [2] [mmHg.h]"
"COc1ccc([C@@H]2c3[nH]c4ccccc4c3C[C@@H]3C(=O)N(CC4CC4)CC(=O)N23)cc1 [Example 84, (6R,12aR)-2,3,6,7,12,12a-Hexahydro-2-cyclopropylmethyl-6-(4-methoxyphenyl)-pyrazino[2′,1′:6.1]pyrido[3,4-b]indole-1,4-dione]",204 to 205,400,10,77
"O=C1[C@H]2Cc3c([nH]c4ccccc34)[C@@H](c3ccc4c(c3)OCO4)N2C(=O)[C@@H]2CCCN12 [Example 115, (5aR, 12R,14aS)-1,2,3,5,6,11,12,14a-Octahydro-12-(3,4-methylenedioxyphenyl)-pyrrolo[1″,2″:4′,5′]pyrazino[2′,1′:6,1]pyrido[3,4-b]indole-5-1,4-dione]",302 to 304,400,< 10,–
"CN1CC(=O)N2C(Cc3c([nH]c4ccccc34)C2c2ccc(Br)s2)C1=O (stereo not drawn) [Example 52, Cis-2,3,6,7,12,12a-Hexahydro-65-bromo-2-thienyl)-2-methyl-pyrazino[2′,1′:6,1]pyrido[3,4-b]indole-1,4-dione]",258,800,20,–
"O=C1NCC(=O)N2[C@H](c3ccc4c(c3)OCO4)c3[nH]c4ccccc4c3C[C@H]12 [Example 101, (6R,12aR)-2,3,6,7,12,12a-Hexahydro-4-(3,4-methylenedioxyphenyl)-pyrazino[2′,1′:6,1]pyrido [3,4-b]indole-1,4-dione]",285 to 290,300,10,136
"O=C1[C@H]2Cc3c([nH]c4ccccc34)[C@@H](c3ccc4c(c3)OCO4)N2C(=O)CN1C1CCCC1 [Example 82, (6R,12aR)-2,3,6,7,12,12a-Hexahydro-2-cyclopentyl-6-(3,4-methylenedioxyphenyl)-pyrazino[2′,1′:6,1pyrido3,4-b]indole-1,4-dione]",237 to 239,500,20,111
"CN1CC(=O)N2[C@@H](c3ccc4c(c3)CCO4)c3[nH]c4ccccc4c3C[C@@H]2C1=O (relative stereo) [Example 36, Cis-2,3,6,7,12,12a-Hexahydro-6-(2,3-dihydrobenzo[b]furan-5-yl)-2-methyl-pyrazino[2′,1′:6,1]pyrido[3,4-b]indole-1,4-dione]",292 to 294,500,< 10,99
"CC(C)N1CC(=O)N2[C@H](c3ccc4c(c3)OCO4)c3[nH]c4ccccc4c3C[C@@H]2C1=O [Example 79, (6R,12aR)-2,3,6,7,12,12a-Hexahydro-2-isopropyl-6-(3,4-methylenedioxyphenyl)-pyrazino[2′,1′:6,1]pyrido[3,4-b]indole-1,4-dione]",290 to 293,150,< 10,171
"O=C1[C@H]2Cc3c([nH]c4ccccc34)[C@H](c3ccc4c(c3)OCO4)N2C(=O)CN1Cc1ccncc1 (relative stereo) [Example 12, Cis-2,3,6,7,12,12a-Hexahydro-2-(4-pyridylmethyl)-6-(3,4-methylenedioxyphenyl)-pyrazino[2′,1′:6,1]pyrido[3,4-b]indole-1,4-dione]",273 to 274,150,10,–
COc1ccc([C@@H]2c3[nH]c4ccccc4c3C[C@@H]3C(=O)N(C)CC(=O)N23)cc1Cl [Example 89],283 to 284,< 100,10,117
"CCN1CC(=O)N2[C@H](c3ccc(OC)cc3)c3[nH]c4ccccc4c3C[C@@H]2C1=O [Example 108, (6R,12aR)-2,3,6,7,12,12a-Hexahydro-2-ethyl-6-(4-methoxyphenyl)-pyrazino[2′,1′:6,1]pyrido[3,4-b]indole-1,4-dione]",277,–,–,–
"CCOc1ccc([C@H]2c3[nH]c4ccccc4c3C[C@@H]3C(=O)N(C)CC(=O)N23)cc1 (relative stereo) [Example 34, Cis-2,3,6,7,12,12a-Hexahydro-6-(4-ethoxyphenyl)-2methyl-pyrazino[2′,1′:6,1]pyrido[3,4-b]indole-1,4-dione]",247 to 248,–,–,–
"CCCCN1CC(=O)N2[C@@H](c3ccc(C(F)(F)F)cc3)c3[nH]c4ccccc4c3C[C@@H]2C1=O (relative stereo) [Example 66, Cis-2,3,6,7,12,12a-Hexahydro-2-butyl-6-(4-trifluoromethylphenyl)-pyrazino[2′,1′:6,1]pyrido[3,4-b]indole-1,4-dione]",155,–,–,–
"CCCCN1CC(=O)N2C(Cc3c([nH]c4ccccc34)C2c2ccc(C)cc2)C1=O (stereo not drawn) [Example 63, Cis-2 3,6,7,12,12a-Hexahydro-2-butyl-6-(4-methylphenyl)-pyrazino[2′,1′:6,1]pyrido[3,4-b]indole-1,4-dione]",194,350,30,95
"CCCCN1CC(=O)N2[C@@H](c3ccc(OC)cc3)c3[nH]c4ccccc4c3C[C@@H]2C1=O (relative stereo) [Example 29, Cis-2,3,6,7,12,12a-Hexahydro-2-butyl-6-(4-methoxyphenyl)-pyrazino[2′,1′:6,1]pyrido[3,4-b]indole-1,4-dione]",157,–,–,–
"O=C1[C@@H]2Cc3c([nH]c4ccccc34)[C@H](c3ccccc3)N2C(=O)CN1Cc1ccccc1 (relative stereo) [Example 46, Trans-2,3,6,7,12,12a-Hexahydro-2-benzyl-6-phenyl-pyrazino[2′,1′:6,1]pyrido[3,4-b]indole-1,4-dione]",284,–,–,–
"CN1CC(=O)N2[C@H](c3ccc4c(c3)OCO4)c3[nH]c4ccccc4c3C[C@@H]2C1=O [Example 95, (6R,12aR)-2,3,6,7,12,12a-Hexahydro-2-methyl-6-(3,4-methylenedioxyphenyl)-pyrazino[2′,1′:6,1]pyrido[3,4-b]indole-1,4-dione]",–,200,–,135
"COc1ccc([C@H]2c3[nH]c4ccccc4c3C[C@H]3C(=O)N(C)CC(=O)N23)cc1 (relative stereo) [Example 26, Trans-2,3,6,7,12,12a-Hexahydro-6-(4-methoxyphenyl)-2-methyl-pyrazino[2′,1′:6,1]pyrido[3,4-b]indole-1,4-dione]",225 to 228,–,–,–
"C#CCN1CC(=O)N2[C@H](c3ccc4c(c3)OCO4)c3[nH]c4ccccc4c3C[C@@H]2C1=O [Example 102, (6R,12aR)-2,3,6,7,12,12a-Hexahydro-6-(3,4-methylenedioxyphenyl)-2-(2-propynyl)-pyrazino[2′,1′:6,1]pyrido[3,4-b]indole-1,4-dione]",271,–,–,–
"CCCCN1CC(=O)N2[C@@H](c3ccc([N+](=O)[O-])cc3)c3[nH]c4ccccc4c3C[C@@H]2C1=O (relative stereo) [Example 75, Cis-2,3,6,7,12,12a-Hexahydro-2-butyl-6-(4-nitrophenyl)-pyrazino[2′,1′:6,1]pyrido[3,4-b]indole-1,4-dione]",182,–,–,–
"Cc1cccc([C@H]2c3[nH]c4ccccc4c3C[C@@H]3C(=O)N(C)CC(=O)N23)c1 (relative stereo) [Example 65, Cis-2,3,6,7,12,12a-Hexahydro-2-methyl-6-(3-methylphenyl)-pyrazino[2′,1′:6,1]pyrido[3,4-b]indole-1,4-dione]",> 260,–,–,–
"CN1CC(=O)N2[C@@H](c3ccc(OC(F)(F)F)cc3)c3[nH]c4ccccc4c3C[C@@H]2C1=O (relative stereo) [Example 67, Cis-2,3,6,7,12,12a-Hexahydro-2-methyl-6-(4-trifluoromethoxyphenyl)-pyrazino[2′,1′:6,1]pyrido[3,4-b]indole-1,4-dione]",174 to 180,–,–,–
"COc1ccc([C@@H]2c3[nH]c4ccccc4c3C[C@@H]3C(=O)N(CC4CC4)CC(=O)N23)cc1Cl [Example 87, (6R,12aR)-2,3,6,7,12,12a-Hexahydro-6-(3-chloro-4-methoxyphenyl)-2-cyclopropylmethyl-pyrazino[2′,1′:6,1]pyrido[3,4-b]indole-1,4-dione]",218 to 219,–,–,–
"CCCN1CC(=O)N2[C@@H](c3ccc4c(c3)OCO4)c3[nH]c4ccccc4c3C[C@@H]2C1=O (relative stereo) [Example 15, Cis-2,3,6,7,12,12a-Hexahydro-6-(3,4-methylenedioxyphenyl)-2-propyl-pyrazino[2′,1′:6,1]pyrido[3,4-b]indole-1,4-dione]",270 to 271,–,–,–
